From patent US12084680B2, “Methods for efficient derivation of human motor neurons from diverse spinal regions” (Wisconsin Alumni Research Foundation, priority 2016, dated 2024)

Columns and labels:
H9 hESCs = assay: Induction of NKX6.1+/PAX6+/OLIG2+ motor neuron progenitors from cervical neuromesoderm (flow cytometry, immunocytochemistry); format: cell-based, human
Experimental: To begin, we sequentially differentiated H9 hESCs in E6 media for 1 day, and FGF8b (200 ng/mL) for 1 day, and FGF8b and CHIR (3 μM) for 2 days to generate cervical neuromesoderm (FIGS. 5A-5B). Then, we screened the effects of CHIR, PM, and SHH treatment on NKX6.1^+/PAX6^+/OLIG2^+ motor neuron progenitor induction while transitioning to media containing 1 μM RA (FIGS. 5A-5D). Prior to the addition of RA, NKX6.1 was expressed in the cervical neuromesodermal state at day 4 (80±18% NKX6.1^+; data not shown), likely due to the CHIR-induced Wnt/β-catenin signaling (FIGS. 4A-4H). Transitioning the neuromesodermal progenitors to RA-containing media for 2 days induced HOXB4^+/HOXC6^+/HOXC9^−/HOXD10^−/PAX6^+ cervical neuroectoderm in all conditions (FIGS. 5B-5C), as expected. However, without co-activation of SHH signaling by PM or SHH, NKX6.1 expression was quickly lost by day 6 (97±1% PAX6^+, 17±3% NKX6.1^+) (FIG. 5C). […] To bolster this claim, we also analyzed the abundance of full-length GLI3 versus its truncated repressor form by western blot. […] Thus, Wnt/β-catenin signaling is necessary to induce ventral identity, but its continuous activation during OLIG2 induction by SHH signaling is detrimental to motor neuron differentiation, possibly due to activation of the GLI3 repressor.
Next, we tested conditions where CHIR was removed after transitioning to media containing RA (1 μM), PM (2 μM), and SHH (2 μg/mL) (FIGS. 5A-5C).
Since NKX6.1 is a pre-requisite to OLIG2 expression, we hypothesized that the Wnt/β-catenin signaling-dependent NKX6.1 expression levels may still be too low for efficient OLIG2^+ motor neuron progenitor induction. Therefore, the concentration of CHIR was boosted to 6 or 9 μM for 6 h immediately prior to transitioning to E6 medium containing RA, PM, and SHH without CHIR (FIG. 5A). The 9 μM CHIR boost followed by a transition to media containing 1 μM RA, 2 μM PM, and 2 μg/mL SHH yielded optimal motor neuron progenitor cultures with highly uniform NKX6.1, OLIG2, and PAX6 expression (96±1%, 85±9%, and 97±2%, respectively) (FIGS. 5C-5D).
hESCs were dissociated with accutase (Thermo Fisher Scientific) and reseeded at 1×10^5 cells/cm2 in E8 medium containing 10 μM ROCK inhibitor (Y27632; R&D Systems) on 6-well polystyrene tissue culture plates coated with 100 μg/mL poly-L-ornithine (PLO; Sigma) and 8 μg/well VTN-NC. The timelines and relevant growth factors/small molecules for all differentiation procedures are described in detail in the Results section and its accompanying figures. Cells were differentiated for various amounts of time in E6 medium containing the same insulin concentration as E8 medium as described above with varying combinations of soluble factors (product information and concentration ranges are found in Table 2). For neuromesodermal induction and HOX propagation, cells were sequentially cultured with FGF8b, CHIR99021 (CHIR), GDF11, and dorsomorphin (DM) as previously described. Briefly, to initiate the neuromesodermal state, cells were changed to E6 medium followed by addition of FGF8b (200 ng/ml) 24 h later. To generate cervical neuromesodermal progenitors, cells were washed with PBS, treated with accutase, and re-seeded in E6 medium containing 200 ng/ml FGF8b, 3 μM CHIR, and 10 μM Y27632 on VTN-NC-coated plates at a density of 1.5×10^5 cells/cm^2 for 48 h. To generate thoracic neuromesodermal progenitors, cells were passaged again after 72 h of CHIR treatment and re-seeded at different densities as described in the text.
Thoracic identity was reached after an additional 24 h. Then, to reach the lumbosacral level, cells were given 30 ng/ml GDF11 and 1 μM DM for an additional 48 h. For neuroectoderm induction and generation of OLIG2^+ progenitors, FGF8b was removed at the designated time points and the concentration of CHIR was increased for 6 h as described in the text, followed by a transition to media containing RA, PM, and SHH for a period of 48 h. […]

GLI3 = assay: Western blot of full-length versus truncated repressor GLI3; format: cell-based, human; settings: cultures maintained in 3 and 6 μM CHIR during PM/SHH exposure, day 6
Experimental: To begin, we sequentially differentiated H9 hESCs in E6 media for 1 day, and FGF8b (200 ng/mL) for 1 day, and FGF8b and CHIR (3 μM) for 2 days to generate cervical neuromesoderm (FIGS. 5A-5B). Then, we screened the effects of CHIR, PM, and SHH treatment on NKX6.1^+/PAX6^+/OLIG2^+ motor neuron progenitor induction while transitioning to media containing 1 μM RA (FIGS. 5A-5D). Prior to the addition of RA, NKX6.1 was expressed in the cervical neuromesodermal state at day 4 (80±18% NKX6.1^+; data not shown), likely due to the CHIR-induced Wnt/β-catenin signaling (FIGS. 4A-4H). Transitioning the neuromesodermal progenitors to RA-containing media for 2 days induced HOXB4^+/HOXC6^+/HOXC9^−/HOXD10^−/PAX6^+ cervical neuroectoderm in all conditions (FIGS. 5B-5C), as expected. However, without co-activation of SHH signaling by PM or SHH, NKX6.1 expression was quickly lost by day 6 (97±1% PAX6^+, 17±3% NKX6.1^+) (FIG. 5C). […] To bolster this claim, we also analyzed the abundance of full-length GLI3 versus its truncated repressor form by western blot. […]
Cells were washed with cold PBS, harvested with accutase, and pelleted by centrifugation. […] Immunostained bands were detected using the SuperSignal West Pico Chemiluminescent Substrate kit (Thermo Fisher Scientific). […]

[1] = 9 μM CHIR boost 6 h, then 1 μM RA, 2 μM PM, 2 μg/mL SHH without CHIR, day 6
[2] = CHIR continued at 3 μM with RA, PM 2 μM, SHH 2 μg/mL, day 6
[3] = CHIR continued at 6 μM with RA, PM, SHH, day 6

## Cc1c[nH]c(-c2cnc(NCCNc3ccc(C#N)cn3)nc2-c2ccc(Cl)cc2Cl)n1 [CHIR, CHIR99021]
H9 hESCs; [1]
  NKX6.1 expression: 96±1%
  OLIG2 expression: 85±9%
  PAX6 expression: 97±2%
H9 hESCs; [2]
  NKX6.1 and PAX6/SOX2 neuroectoderm marker expression: uniformly expressed
  OLIG2 induction: minimal OLIG2 was induced
H9 hESCs; [3]
  OLIG2 induction: OLIG2 was still not induced
  PAX6 expression: PAX6 expression was diminished
  PAX7 detection: no PAX7 was detected
H9 hESCs; FGF8b 200 ng/mL and CHIR 3 μM for 2 days, day 4, before RA
  NKX6.1+ cells in cervical neuromesodermal state: 80±18%
GLI3
  GLI3 truncated repressor form level (western blot): increased levels of the GLI3 truncated repressor form
